Assay results: patent US20240109893A1, “PREPARATION AND APPLICATION METHOD OF HETEROCYCLIC COMPOUNDS AS KRAS INHIBITOR” (SHANGHAI KECHOW PHARMA, INC., priority 2020, published 2024)

How the values were obtained:
[1] = system: H358 cells; experiment: Cell activity experiment: activity test of H358 cells (MTT, 5 days); type: cell-based; details: Homo sapiens, NCI-H358, 120 h, 5 days incubation, absorbance 492 nm
In short: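 H358 cells seeded 90 μL at 55555 cells/mL, grown 24 h, then exposed to 3-fold serial compound dilutions (final top 10000 nM, 0.5% DMSO) in triplicate for 5 days at 37° C., 5% CO2. Viability by MTT (4 h), formazan dissolved in DMSO, absorbance at 492 nm.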

[2] = biological target: KRAS G12C-GDP (Homo sapiens (Human), UniProt P01116, G12C); experiment: KRAS G12C-GDP exchange test (SOS/cRAF/GTP, HTRF); type: biochemical; details: 1 h premix with compound, 2 h reaction with SOS, cRAF, GTP
Sequence of KRAS G12C-GDP (P01116-2 other isoform, or with tags, fused parts or gaps G12C): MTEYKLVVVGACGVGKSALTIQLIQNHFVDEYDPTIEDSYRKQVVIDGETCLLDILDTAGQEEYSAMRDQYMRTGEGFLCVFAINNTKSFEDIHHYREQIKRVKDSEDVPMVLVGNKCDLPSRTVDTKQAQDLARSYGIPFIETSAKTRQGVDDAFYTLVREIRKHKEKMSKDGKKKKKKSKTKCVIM
Protocol: 2. A mixture of SOS (Pharmaron, ZZY-20190823), cRAF (Pharmaron, ZZY-20190823), GTP (Sigma, A6885-100MG), MAb Anti 6HIS-d2/MAb Anti GST-Eu (Cisbio, 61HISDLB/61GSTKLB) was added for a catalyzed reaction for 2 h.
3. The fluorescence signals of the emitted light at 615 nm and 665 nm under 320 nm excitation light were read by Biotek Microplate Reader (Synergy4).
4. The IC50 (median inhibitory concentration) of the compound was obtained by the following non-linear fitting formula: Y=Bottom+(Top−Bottom)/(1+10^((Log IC50−X)*Hill Slope)), and the data were analyzed by Graphpad 6-0 software.

[3] = Pharmacokinetic experiment in SD rats; type: in vivo; details: male, Sprague-Dawley, rat, plasma, po, 10 mg/kg; read-out: Oral bioavailability, F %
Protocol: Pharmacokinetic Experiment in SD Rats:
1. SPF male rats were randomly divided into groups. The compounds to be tested were separately administered by intravenous injection and oral gavage, with 3 animals for each compound to be tested in each mode of administration. The administration solvent was 5% DMSO+10% Solutol+85% normal saline or 85% PBS, and the substances to be tested were dissolved in the solvent to obtain clear solutions. Administration concentration and volume: 1) a single intravenous injection of 0.6 mg/mL of the compound to be tested, with an administration volume of 5 mL/kg and an administration dosage of 3 mg/kg; and 2) a single oral gavage of 1 mg/mL of the compound to be tested, with an administration volume of 10 mL/kg and an administration dosage of 10 mg/kg. The rats were fasted overnight (10-14 h) before administration and fed 4 h after administration.
2. Blood was collected via the jugular vein or by other appropriate methods at 200 μL per time point and anticoagulated with K2-EDTA, and after collection, the blood was placed on ice and centrifuged for plasma within 1 h (centrifugation conditions: 6800 g, 6 min 2-8° C.). The points for blood sampling from the animals in the intravenous injection group were respectively: before administration, and 5 min, 15 min, 30 min, 1 h, 2 h, 4 h, 8 h, and 24 h after administration; and the points for blood sampling from the animals in the oral administration group were respectively: before administration, and 15 min, 30 min, 1 h, 2 h, 4 h, 6 h, 8 h, and 24 h after administration.
3. The blood concentration was detected, and the pharmacokinetic parameter AUC(0-t) was calculated by Phoenix WinNonlin based on the blood concentration data at various time points. When the pharmacokinetic parameters were calculated, the BLQ before Cmax (including ‘No peak’) was calculated as 0: and BLQ after Cmax (including ‘No peak’) was not involved in the calculation.

IC50 [1]: 0.4 nM | IC50 [2]: 0.93 nM | bioavailability [3]: 30.3%
Compound: C=C(F)C(=O)N1CCN(c2nc(OC[C@@]34CCCN3C[C@H](F)C4)nc3c(F)c(-c4cccc5cccc(Cl)c45)ccc23)C[C@@H]1CC#N [Example 904, 2-((S)-4-(7-(8-chloronaphthalen-1-yl)-8-fluoro-2-((2R,7aS)-2-fluorotetrahydro-1H-pyrrolizin-7a(5H)-methoxy)quinazolin-4-yl)-1-(2-fluoroacryloyl)piperazin-2-yl)acetonitrile]
